Data from PMC7256847 (Polish Journal of Microbiology, 2019).
Like-named read-outs stand apart in the source and are kept apart here.

What was measured:
alanine racemase (SiAlr) [1] = biological target: T1, alanine racemase (SiAlr) (Streptococcus iniae, UniProt A0A3L8GG59); assay: enzyme inhibition assay with purified recombinant SiAlr; format: biochemical
T1 sequence (A0A3L8GG59 1-368): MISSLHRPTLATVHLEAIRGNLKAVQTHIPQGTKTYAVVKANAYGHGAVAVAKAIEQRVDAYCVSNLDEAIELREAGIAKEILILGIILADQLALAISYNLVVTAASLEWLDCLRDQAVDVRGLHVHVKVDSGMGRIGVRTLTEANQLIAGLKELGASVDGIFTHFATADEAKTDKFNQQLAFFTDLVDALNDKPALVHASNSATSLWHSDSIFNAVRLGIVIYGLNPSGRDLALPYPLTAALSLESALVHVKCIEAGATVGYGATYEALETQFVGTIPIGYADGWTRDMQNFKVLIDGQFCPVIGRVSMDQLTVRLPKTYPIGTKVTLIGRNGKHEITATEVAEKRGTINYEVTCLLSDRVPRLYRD

alanine racemase (SiAlr) [2] = biological target: T1, alanine racemase (SiAlr); assay: as above; format: biochemical; remark: listed apart in the source
[3] = substrate: C[C@H](N)C(=O)O; assay: HPLC racemization kinetics; format: biochemical, Streptococcus iniae; settings: pyridoxal […]'-phosphate (PLP)
[4] = substrate: C[C@@H](N)C(=O)O; assay: HPLC racemization kinetics; format: biochemical, Streptococcus iniae; settings: pyridoxal […]'-phosphate (PLP)

For Oc1ccc(O)cc1 [hydroquinone], which IC50 (alanine racemase (SiAlr) [1]) is on record?
Its IC50 is 11.4 µM.

For O=C(O)Cc1cc(O)ccc1O [homogentisic acid], which IC50 (alanine racemase (SiAlr) [1]) is on record?
The IC50 was 12.3 µM.

For N[C@@H]1CON=C1O [D-cycloserine], which IC50 (alanine racemase (SiAlr) [2]) is on record?
Its IC50 is 3.69 µM.

B1: alanine racemase (SiAlr) (Streptococcus iniae) (protein)
chain: MISSLHRPTLATVHLEAIRGNLKAVQTHIPQGTKTYAVVKANAYGHGAVAVAKAIEQRVDAYCVSNLDEAIELREAGIAKEILILGIILADQLALAISYNLVVTAASLEWLDCLRDQAVDVRGLHVHVKVDSGMGRIGVRTLTEANQLIAGLKELGASVDGIFTHFATADEAKTDKFNQQLAFFTDLVDALNDKPALVHASNSATSLWHSDSIFNAVRLGIVIYGLNPSGRDLALPYPLTAALSLESALVHVKCIEAGATVGYGATYEALETQFVGTIPIGYADGWTRDMQNFKVLIDGQFCPVIGRVSMDQLTVRLPKTYPIGTKVTLIGRNGKHEITATEVAEKRGTINYEVTCLLSDRVPRLYRD
Which results are given for B1?
Km [3]: 33.11 mM; Km [4]: 14.36 mM
